Measurements published in US20260262643A1, “HERBICIDAL BENZOXAZINES” (FMC CORPORATION, priority 2022, published 2026).
Read-outs that look alike come from different tables or passages of the source.

Experiments:
[1] = test system: corn; experiment: Test A preemergence; assay type: in vivo, Zea mays; conditions: Zea mays, pre-emergence, 240 h; for Corn plant response rating (crop injury, 0 = no effect, 100 = complete kill) at 125 g/ha: 125 g ai/ha; for Corn plant response rating (crop injury, 0 = no effect, 100 = complete kill) at 500 g/ha: 500 g ai/ha
Procedure, shortened: (§1)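 Visual injury ratings on a 0–100 scale (100 = complete control) versus untreated controls, taken 10 days after treatment in greenhouse. Preemergence: directed soil spray onto seeded loam/sand. Postemergence: foliar application at one- to two-leaf stage, plants 2–10 cm. Formulation: non-phytotoxic solvent plus surfactant.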

[2] = test system: foxtail, giant; experiment: Test A preemergence; assay type: in vivo, Setaria faberi; conditions: Setaria faberi, pre-emergence, 240 h, read-out: Plant response rating, Foxtail, Giant; for pest or weed control at 125 g/ha: 125 g ai/ha; for pest or weed control at 500 g/ha: 500 g ai/ha
Procedure, shortened: as §1

[3] = test system: pigweed, palmer; experiment: Test A preemergence; assay type: in vivo, Amaranthus palmeri; conditions: Amaranthus palmeri, pre-emergence, 240 h, read-out: Plant response rating, Pigweed, Palmer; for pest or weed control at 125 g/ha: 125 g ai/ha; for pest or weed control at 500 g/ha: 500 g ai/ha
Procedure, shortened: as §1

[4] = test system: ragweed; experiment: Test A preemergence; assay type: in vivo, Ambrosia artemisiifolia; conditions: Ambrosia artemisiifolia, pre-emergence, 240 h, read-out: Plant response rating, Ragweed; for pest or weed control at 125 g/ha: 125 g ai/ha; for pest or weed control at 500 g/ha: 500 g ai/ha
Procedure, shortened: as §1

[5] = test system: ryegrass, Italian; experiment: Test A preemergence; assay type: in vivo, Lolium multiflorum; conditions: Lolium multiflorum, pre-emergence, 240 h, read-out: Plant response rating, Ryegrass, Italian; for pest or weed control at 125 g/ha: 125 g ai/ha; for pest or weed control at 500 g/ha: 500 g ai/ha
Procedure, shortened: as §1

[6] = test system: wheat; experiment: Test A preemergence; assay type: in vivo, Triticum aestivum; conditions: Triticum aestivum, pre-emergence, 240 h, read-out: Plant response rating, Wheat; for plant injury at 125 g/ha: 125 g ai/ha; for plant injury at 500 g/ha: 500 g ai/ha
Procedure, shortened: as §1

[7] = test system: corn; experiment: Test A postemergence; assay type: in vivo, Zea mays; conditions: Zea mays, post-emergence, 240 h; for Corn plant response rating (crop injury, 0 = no effect, 100 = complete kill) at 500 g/ha: 500 g ai/ha
Procedure, shortened: as §1

[8] = test system: foxtail, giant; experiment: Test A postemergence; assay type: in vivo, Setaria faberi; conditions: Setaria faberi, post-emergence, 240 h; for pest or weed control at 125 g/ha: 125 g ai/ha; for pest or weed control at 500 g/ha: 500 g ai/ha
Procedure, shortened: as §1

[9] = test system: kochia; experiment: Test A postemergence; assay type: in vivo, Bassia scoparia; conditions: Bassia scoparia, post-emergence, 240 h; for pest or weed control at 125 g/ha: 125 g ai/ha; for pest or weed control at 500 g/ha: 500 g ai/ha
Procedure, shortened: as §1

[10] = test system: pigweed, palmer; experiment: Test A postemergence; assay type: in vivo, Amaranthus palmeri; conditions: Amaranthus palmeri, post-emergence, 240 h; for pest or weed control at 125 g/ha: 125 g ai/ha; for pest or weed control at 500 g/ha: 500 g ai/ha
Procedure, shortened: as §1

[11] = test system: ragweed; experiment: Test A postemergence; assay type: in vivo, Ambrosia artemisiifolia; conditions: Ambrosia artemisiifolia, post-emergence, 240 h; for pest or weed control at 125 g/ha: 125 g ai/ha; for pest or weed control at 500 g/ha: 500 g ai/ha
Procedure, shortened: as §1

[12] = test system: soybean; experiment: Test A postemergence; assay type: in vivo, Glycine max; conditions: Glycine max, post-emergence, 240 h; for plant injury at 125 g/ha: 125 g ai/ha; for plant injury at 500 g/ha: 500 g ai/ha
Procedure, shortened: as §1

[13] = test system: horseweed; experiment: Test A postemergence; assay type: in vivo, Erigeron canadensis; conditions: Erigeron canadensis, post-emergence, 240 h; for pest or weed control at 125 g/ha: 125 g ai/ha; for pest or weed control at 500 g/ha: 500 g ai/ha
Procedure, shortened: as §1

[14] = test system: barnyardgrass; experiment: Test B flooded paddy test; assay type: in vivo, Echinochloa crus-galli; conditions: Echinochloa crus-galli, 312 h, 250 g ai/ha, Flood, 13 days, 0 to 100 scale (0 no effect, 100 complete control); read-out: Plant response rating, Barnyardgrass
Procedure, shortened: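 Application into standing water (3 cm above soil) at the two-leaf stage; flood depth held constant. Evaluation: day 13, visual comparison with controls, 0 = no injury, 100 = complete control.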

[15] = visual injury after 10 days, 0 to 100 scale, 0 is no effect, 100 is complete control
[16] = 0 to 100 scale (0 no effect, 100 complete control), 10 days
[17] = postemergence, 10 days, visual injury, 0 to 100 scale (0 no effect, 100 complete control), read-out: Plant response rating, Foxtail, Giant
[18] = postemergence, 10 days, visual injury, 0 to 100 scale (0 no effect, 100 complete control), read-out: Plant response rating, Kochia
[19] = postemergence, 10 days, visual injury, 0 to 100 scale (0 no effect, 100 complete control), read-out: Plant response rating, Pigweed, Palmer
[20] = postemergence, 10 days, visual injury, 0 to 100 scale (0 no effect, 100 complete control), read-out: Plant response rating, Ragweed
[21] = postemergence, 10 days, visual injury, 0 to 100 scale (0 no effect, 100 complete control), read-out: Plant response rating, Soybean
[22] = postemergence, 10 days, visual injury, 0 to 100 scale (0 no effect, 100 complete control), read-out: Plant response rating, Horseweed

C#Cc1ncn(-c2cccc(C(=O)N3C[C@H](C)Oc4c(C)cccc43)c2)n1 [Compound 64, [(2S)-2,3-Dihydro-2,8-dimethyl-4H-1,4-benzoxazin-4-yl][3-(3-ethynyl-1H-1,2,4-triazol-1-yl)phenyl]methanone]
Corn plant response rating (crop injury, 0 = no effect, 100 = complete kill) at 125 g/ha [1, 15]: 20% | Corn plant response rating (crop injury, 0 = no effect, 100 = complete kill) at 500 g/ha [1, 16]: 50% | pest or weed control at 125 g/ha [2, 15]: 90% | pest or weed control at 500 g/ha [2, 16]: 100% | pest or weed control at 125 g/ha [3, 15]: 40% | pest or weed control at 500 g/ha [3, 16]: 100% | pest or weed control at 125 g/ha [4, 15]: 0% | pest or weed control at 500 g/ha [4, 16]: 0% | pest or weed control at 125 g/ha [5, 15]: 90% | pest or weed control at 500 g/ha [5, 16]: 100% | plant injury at 125 g/ha [6, 15]: 20% | plant injury at 500 g/ha [6, 16]: 40% | Corn plant response rating (crop injury, 0 = no effect, 100 = complete kill) at 125 g/ha ([7]; 125 g ai/ha, postemergence, 10 days, visual injury, 0 to 100 scale (0 no effect, 100 complete control)): 10% | Corn plant response rating (crop injury, 0 = no effect, 100 = complete kill) at 500 g/ha ([7]; Postemergence, 0 to 100 scale): 80% | pest or weed control at 125 g/ha [8, 17]: 20% | pest or weed control at 500 g/ha ([8]; Postemergence, 0 to 100 scale, read-out: Plant response rating, Foxtail, Giant): 90% | pest or weed control at 125 g/ha [9, 18]: 60% | pest or weed control at 500 g/ha ([9]; Postemergence, 0 to 100 scale, read-out: Plant response rating, Kochia): 80% | pest or weed control at 125 g/ha [10, 19]: 30% | pest or weed control at 500 g/ha ([10]; Postemergence, 0 to 100 scale, read-out: Plant response rating, Pigweed, Palmer): 50% | pest or weed control at 125 g/ha [11, 20]: 0% | pest or weed control at 500 g/ha ([11]; Postemergence, 0 to 100 scale, read-out: Plant response rating, Ragweed): 40% | plant injury at 125 g/ha [12, 21]: 80% | plant injury at 500 g/ha ([12]; Postemergence, 0 to 100 scale, read-out: Plant response rating, Soybean): 100% | pest or weed control at 125 g/ha [13, 22]: 0% | pest or weed control at 500 g/ha ([13]; Postemergence, 0 to 100 scale, read-out: Plant response rating, Horseweed): 40% | pest or weed control at 250 g/ha [14]: 0%

Cc1ccc(-n2ncnc2C)cc1C(=O)N1C[C@H](C)Oc2c(Cl)cccc21 (single isomer, unassigned) [Compound 126]
Corn plant response rating (crop injury, 0 = no effect, 100 = complete kill) at 125 g/ha [1, 15]: 0% | Corn plant response rating (crop injury, 0 = no effect, 100 = complete kill) at 500 g/ha [1, 15]: 40% | pest or weed control at 125 g/ha [2, 15]: 60% | pest or weed control at 500 g/ha [2, 15]: 100% | pest or weed control at 125 g/ha [3, 15]: 20% | pest or weed control at 500 g/ha [3, 15]: 60% | pest or weed control at 125 g/ha [4, 15]: 0% | pest or weed control at 500 g/ha [4, 15]: 0% | pest or weed control at 125 g/ha [5, 15]: 40% | pest or weed control at 500 g/ha [5, 15]: 70% | plant injury at 125 g/ha [6, 15]: 0% | plant injury at 500 g/ha [6, 15]: 30% | plant injury at 125 g/ha ([7]; 125 g ai/ha, postemergence, 10 days, 0 to 100 scale (0 no effect, 100 complete control), read-out: Corn plant response rating): 0% | Corn plant response rating (crop injury, 0 = no effect, 100 = complete kill) at 500 g/ha ([7]; postemergence, 10 days, visual injury, 0 to 100 scale (0 no effect, 100 complete control)): 10% | pest or weed control at 125 g/ha ([8]; postemergence, 10 days, 0 to 100 scale (0 no effect, 100 complete control), read-out: Foxtail, Giant plant response rating): 0% | pest or weed control at 500 g/ha [8, 17]: 70% | pest or weed control at 125 g/ha ([9]; postemergence, 10 days, 0 to 100 scale (0 no effect, 100 complete control), read-out: Kochia plant response rating): 10% | pest or weed control at 500 g/ha [9, 18]: 20% | pest or weed control at 125 g/ha ([10]; postemergence, 10 days, 0 to 100 scale (0 no effect, 100 complete control), read-out: Pigweed, Palmer plant response rating): 0% | pest or weed control at 500 g/ha [10, 19]: 30% | pest or weed control at 125 g/ha ([11]; postemergence, 10 days, 0 to 100 scale (0 no effect, 100 complete control), read-out: Ragweed plant response rating): 30% | pest or weed control at 500 g/ha [11, 20]: 50% | plant injury at 125 g/ha ([12]; postemergence, 10 days, 0 to 100 scale (0 no effect, 100 complete control), read-out: Soybean plant response rating): 40% | plant injury at 500 g/ha [12, 21]: 60% | pest or weed control at 125 g/ha ([13]; postemergence, 10 days, 0 to 100 scale (0 no effect, 100 complete control), read-out: Horseweed plant response rating): 0% | pest or weed control at 500 g/ha [13, 22]: 40% | pest or weed control at 250 g/ha [14]: 0%
